Experimental data from ChEMBL document CHEMBL3885861, “Open TG-GATES”.

Species: Rattus norvegicus
Test: Open TG-GATES - Regimen: Daily Repeat
Assay type: toxicity, organism-based, Sprague-Dawley
Design: regimen Daily Repeat, gender Male, age 6 weeks
Settings: in vivo, po, 10 mg/kg, route gavage, dose level Low; for APTT / Bas / Eos / Fbg / Hb / Ht / Lym / MCH / MCHC / MCV / Mono / Neu / PT / Plat / RBC / Ret / WBC: tissue Blood; for KIDNEY_L / KIDNEY_R / KIDNEY_TOTAL: tissue Kidney; for LIVER: tissue Liver; for A/G / ALP / ALT / AST / BUN / CRE / Ca / Cl / DBIL / GLC / IP / K / LDH / Na / PL / RALB / TBIL / TC / TG / TP / gamma-GTP: tissue Plasma

Compound: CCCc1cc(=O)[nH]c(=S)[nH]1 [PROPYLTHIOURACIL]
- TERMINAL_BW (72 h, time 3 day): 207 g
- APTT (72 h, time 3 day): 15.4 s
- Bas (72 h, time 3 day): 0%
- Eos (72 h, time 3 day): 0%
- Fbg (72 h, time 3 day): 238.6 mg/dL
- Hb (72 h, time 3 day): 13.5 g/dL
- Ht (72 h, time 3 day): 40.4%
- Lym (72 h, time 3 day): 75.2%
- MCH (72 h, time 3 day): 21.4 pg
- MCHC (72 h, time 3 day): 33.3%
- MCV (72 h, time 3 day): 64.3 fL
- Mono (72 h, time 3 day): 7.4%
- Neu (72 h, time 3 day): 17.4%
- PT (72 h, time 3 day): 12.4 s
- Plat (72 h, time 3 day): 93.7 x10_4/uL
- RBC (72 h, time 3 day): 629.4 x10_4/ul
- Ret (72 h, time 3 day): 6.6%
- WBC (72 h, time 3 day): 124.3 x10_2/uL
- KIDNEY_L (72 h, time 3 day): 0.9 g
- KIDNEY_R (72 h, time 3 day): 0.9 g
- KIDNEY_TOTAL (72 h, time 3 day): 1.8 g
- LIVER (72 h, time 3 day): 10 g
- A/G (72 h, time 3 day): 2
- ALP (72 h, time 3 day): 1039.8 IU/L
- ALT (72 h, time 3 day): 30.4 IU/L
- AST (72 h, time 3 day): 54.4 IU/L
- BUN (72 h, time 3 day): 20 mg/dL
- CRE (72 h, time 3 day): 0.5 mg/dL
- Ca (72 h, time 3 day): 11.2 mg/dL
- Cl (72 h, time 3 day): 105.8 meq/L
- DBIL (72 h, time 3 day): 0 mg/dL
- GLC (72 h, time 3 day): 185.4 mg/dL
- IP (72 h, time 3 day): 7.1 mg/dL
- K (72 h, time 3 day): 4.7 meq/L
- LDH (72 h, time 3 day): 81.2 IU/L
- Na (72 h, time 3 day): 138 meq/L
- PL (72 h, time 3 day): 161.4 mg/dL
- RALB (72 h, time 3 day): 3.9 g/dL
- TBIL (72 h, time 3 day): 0.3 mg/dL
- TC (72 h, time 3 day): 97.6 mg/dL
- TG (72 h, time 3 day): 87.4 mg/dL
- TP (72 h, time 3 day): 5.9 g/dL
- gamma-GTP (72 h, time 3 day): 2 IU/L
- TERMINAL_BW ([…], time 7 day): 233.5 g
- TERMINAL_BW ([…], time 14 day): 245.3 g
- TERMINAL_BW ([…], time 28 day): 243.1 g
- APTT ([…], time 7 day): 15.3 s
- Bas ([…], time 7 day): 0%
- Eos ([…], time 7 day): 0.2%
- Fbg ([…], time 7 day): 252.2 mg/dL
- Hb ([…], time 7 day): 13.9 g/dL
- Ht ([…], time 7 day): 41.5%
- Lym ([…], time 7 day): 86.6%
- MCH ([…], time 7 day): 21 pg
- MCHC ([…], time 7 day): 33.4%
- MCV ([…], time 7 day): 62.8 fL
- Mono ([…], time 7 day): 6.6%
- Neu ([…], time 7 day): 6.6%
- PT ([…], time 7 day): 12.6 s
- Plat ([…], time 7 day): 117.2 x10_4/uL
- RBC ([…], time 7 day): 662.4 x10_4/ul
- Ret ([…], time 7 day): 4%
- WBC ([…], time 7 day): 116 x10_2/uL
- APTT ([…], time 14 day): 16.4 s
- Bas ([…], time 14 day): 0%
- Eos ([…], time 14 day): 0.4%
- Fbg ([…], time 14 day): 194.6 mg/dL
- Hb ([…], time 14 day): 14.7 g/dL
- Ht ([…], time 14 day): 43.7%
- Lym ([…], time 14 day): 90.6%
- MCH ([…], time 14 day): 20.6 pg
- MCHC ([…], time 14 day): 33.7%
- MCV ([…], time 14 day): 61.1 fL
- Mono ([…], time 14 day): 3.8%
- Neu ([…], time 14 day): 5.2%
- PT ([…], time 14 day): 14 s
- Plat ([…], time 14 day): 101.1 x10_4/uL
- RBC ([…], time 14 day): 715.2 x10_4/ul
- Ret ([…], time 14 day): 1.3%
- WBC ([…], time 14 day): 120.9 x10_2/uL
- APTT ([…], time 28 day): 15.2 s
- Bas ([…], time 28 day): 0%
- Eos ([…], time 28 day): 1.6%
- Fbg ([…], time 28 day): 176.8 mg/dL
- Hb ([…], time 28 day): 16.3 g/dL
- Ht ([…], time 28 day): 48.4%
- Lym ([…], time 28 day): 85.4%
- MCH ([…], time 28 day): 19.3 pg
- MCHC ([…], time 28 day): 33.7%
- MCV ([…], time 28 day): 57.5 fL
- Mono ([…], time 28 day): 4.8%
- Neu ([…], time 28 day): 8.2%
- PT ([…], time 28 day): 14.8 s
- Plat ([…], time 28 day): 83 x10_4/uL
- RBC ([…], time 28 day): 843.2 x10_4/ul
- Ret ([…], time 28 day): 0.7%
- WBC ([…], time 28 day): 61.3 x10_2/uL
- KIDNEY_L ([…], time 7 day): 1 g
- KIDNEY_R ([…], time 7 day): 1 g
- KIDNEY_TOTAL ([…], time 7 day): 1.9 g
- KIDNEY_L ([…], time 14 day): 0.9 g
- KIDNEY_R ([…], time 14 day): 0.9 g
- KIDNEY_TOTAL ([…], time 14 day): 1.7 g
- KIDNEY_L ([…], time 28 day): 0.8 g
- KIDNEY_R ([…], time 28 day): 0.8 g
- KIDNEY_TOTAL ([…], time 28 day): 1.7 g
- LIVER ([…], time 7 day): 12.4 g
- LIVER ([…], time 14 day): 10.5 g
- LIVER ([…], time 28 day): 7.9 g
- A/G ([…], time 7 day): 1.8
- ALP ([…], time 7 day): 740.8 IU/L
- ALT ([…], time 7 day): 27.6 IU/L
- AST ([…], time 7 day): 48.8 IU/L
- BUN ([…], time 7 day): 20.4 mg/dL
- CRE ([…], time 7 day): 0.5 mg/dL
- Ca ([…], time 7 day): 11.5 mg/dL
- Cl ([…], time 7 day): 105.6 meq/L
- DBIL ([…], time 7 day): 0.008 mg/dL
- GLC ([…], time 7 day): 169.4 mg/dL
- IP ([…], time 7 day): 7.2 mg/dL
- K ([…], time 7 day): 4.9 meq/L
- LDH ([…], time 7 day): 83.8 IU/L
- Na ([…], time 7 day): 139.6 meq/L
- PL ([…], time 7 day): 174.2 mg/dL
- RALB ([…], time 7 day): 4.1 g/dL
- TBIL ([…], time 7 day): 0.3 mg/dL
- TC ([…], time 7 day): 108 mg/dL
- TG ([…], time 7 day): 116.6 mg/dL
- TP ([…], time 7 day): 6.4 g/dL
- gamma-GTP ([…], time 7 day): 1.4 IU/L
- A/G ([…], time 14 day): 1.7
- ALP ([…], time 14 day): 568 IU/L
- ALT ([…], time 14 day): 27 IU/L
- AST ([…], time 14 day): 52.8 IU/L
- BUN ([…], time 14 day): 26.6 mg/dL
- CRE ([…], time 14 day): 0.7 mg/dL
- Ca ([…], time 14 day): 11.1 mg/dL
- Cl ([…], time 14 day): 106.4 meq/L
- DBIL ([…], time 14 day): 0.006 mg/dL
- GLC ([…], time 14 day): 178.6 mg/dL
- IP ([…], time 14 day): 6.3 mg/dL
- K ([…], time 14 day): 4.3 meq/L
- LDH ([…], time 14 day): 68.4 IU/L
- Na ([…], time 14 day): 141 meq/L
- PL ([…], time 14 day): 152.6 mg/dL
- RALB ([…], time 14 day): 4.2 g/dL
- TBIL ([…], time 14 day): 0.2 mg/dL
- TC ([…], time 14 day): 96.4 mg/dL
- TG ([…], time 14 day): 59.8 mg/dL
- TP ([…], time 14 day): 6.7 g/dL
- gamma-GTP ([…], time 14 day): 2.2 IU/L
- A/G ([…], time 28 day): 2
- ALP ([…], time 28 day): 628 IU/L
- ALT ([…], time 28 day): 35.4 IU/L
- AST ([…], time 28 day): 63.4 IU/L
- BUN ([…], time 28 day): 25.8 mg/dL
- CRE ([…], time 28 day): 0.7 mg/dL
- Ca ([…], time 28 day): 10.5 mg/dL
- Cl ([…], time 28 day): 108.6 meq/L
- DBIL ([…], time 28 day): 0.056 mg/dL
- GLC ([…], time 28 day): 161 mg/dL
- IP ([…], time 28 day): 5.7 mg/dL
- K ([…], time 28 day): 4.2 meq/L
- LDH ([…], time 28 day): 62.6 IU/L
- Na ([…], time 28 day): 141.2 meq/L
- PL ([…], time 28 day): 150.6 mg/dL
- RALB ([…], time 28 day): 4.3 g/dL
- TBIL ([…], time 28 day): 0.2 mg/dL
- TC ([…], time 28 day): 100.8 mg/dL
- TG ([…], time 28 day): 44.6 mg/dL
- TP ([…], time 28 day): 6.5 g/dL
- gamma-GTP ([…], time 28 day): 3.2 IU/L
